Columns and labels:
A549 = assay: Cytotoxicity assay (propidium iodide), A549; assay type: cell-based; conditions: Homo sapiens; A549 (C1a, lung); 48 hours
H460 = assay: Cytotoxicity assay (propidium iodide), H460; assay type: cell-based; conditions: Homo sapiens, NCI-H460; H460 (C1b, lung); 48 hours
Protocol: (§4) Cells from cell lines as mentioned in the table given below were seeded at a density of 3000 cells/well in a white opaque 96-well plate. Following incubation at 37° C./5% CO2 for a period of 18-24 hours, the cells were treated with various concentrations (stock solution was prepared in DMSO and subsequent dilutions were made in media as per ATCC guidelines) of the representative compounds of present invention (refer table 3) for a period of 48 hours. At the end of treatment, the spent culture medium was discarded, the cells were washed with 1×PBS and 200 μl of 7 μg/ml propidium iodide was added to each well. The plates were frozen at −70° C. for at least 24 hours. For analysis, the plates were brought to RT, allowed to thaw and were read in PolarStar fluorimeter with the fluorescence setting. The percentage of viable cells in the non treated set of wells was considered to be 100 and the percentage viability following treatment was calculated accordingly. IC50 values were calculated from graphs plotted using these percentages.

MDA MB 468 = assay: Cytotoxicity assay (propidium iodide), MDA MB 468; assay type: cell-based; conditions: Homo sapiens; MDA MB 468 (C6b, breast); 48 hours
Protocol: as §4

MCF7 = assay: Cytotoxicity assay (propidium iodide), MCF7; assay type: cell-based; conditions: Homo sapiens; MCF7 (C6c, breast); 48 hours
Protocol: as §4

G361 = assay: Cytotoxicity assay (propidium iodide), G361; assay type: cell-based; conditions: G-361; G361 (C9a, human melanoma); 48 hours
Protocol: as §4

IL-6 [1] = assay: Human monocyte assay, LPS-stimulated IL-6; assay type: cell-based; conditions: Monocyte; human monocytes, 1 μg/ml LPS, 5 hours
Method in brief: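 Adherent human PBMC-derived monocytes (2×10^4/well) were cultured 48 h, preincubated 30 min with compound or 0.5% DMSO, then stimulated with 1 μg/ml E. coli LPS for 5 h at 37° C. TNF-α and IL-6 in supernatants were measured by ELISA.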

PC3 = assay: Cytotoxicity assay (propidium iodide), PC3; conditions: Homo sapiens, PC-3, 48 h, read-out: IC50 cytotoxicity
TNF-α [2] = assay: Human monocyte assay, LPS-stimulated TNF-α; assay type: cell-based; conditions: human monocytes, 1 μg/ml LPS, 5 hours
Protocol: The assay was designed as in the reference, Physiol.
Peripheral blood mononuclear cells (hPBMC) were harvested from human blood and suspended in RPMI 1640 culture medium containing 10% FCS, 100 U/mL penicillin and […] streptomycin (assay medium). Monocytes in the hPBMCs were counted using a Coulter Counter following which the cells were resuspended at 2×10^5 monocytes/mL. A cell suspension containing 2×10^4 monocytes was aliquoted per well of a 96-well plate. Subsequently, the hPBMCs were incubated for 4-5 hours at 37° C., 5% CO2 (During the incubation, the monocytes adhered to the bottom of 96-well plastic culture plate). Following the incubation, the non-adherent lymphocytes were washed with assay medium and the adherent monocytes re-fed with assay medium. After a 48-hour incubation period (37° C., 5% CO2), monocytes were pretreated with various concentrations of representative compounds of present invention (refer to table 6 and 7) (prepared in DMSO) or vehicle (0.5% DMSO) for 30 minutes and stimulated with 1 μg/ml LPS (Escherchia coli 0111:B4, Sigma Chemical Co., St. Louis, Mo.). The incubation was continued for 5 hours at 37° C., 5% CO2. Supernatants were harvested, assayed for IL-6 and TNF-α by ELISA as described by the manufacturer (BD Biosciences, USA). Dexamethasone (10 μM) was used as standard for this assay. […] Biological results for both IL-6 and TNFα are indicated in Table 6 and Table 7 respectively.

IL-6 [3] = assay: Synovial tissue assay, IL-6; assay type: cell-based; conditions: Homo sapiens; synovial tissue cells from rheumatoid arthritis patients, 16 hours
Protocol: (§1) The assay was designed as in the reference, Lancet, 2(8657), 244-7, Jul.
(§2) Stock Solution: Compounds of the present invention were dissolved in DMSO to obtain a stock solution of 20 mM.
(§3) Synovial tissue was obtained from rheumatoid arthritis patients undergoing knee replacement surgery. The tissue was minced into small pieces and digested in RPMI medium containing 100 U/ml penicillin-G, 100 μg/ml streptomycin, 50 ng/ml amphotericin B (GIBCO; USA), 1.33 mg/ml collagenase Type I (Worthington Biochemical Corporation, New Jersey), 0.5 μg/ml DNAse Type I (Sigma Aldrich; St. Louis, Mo.) and 8.33 U/ml heparin (Biological E. Limited, India) for 3 hours at 37° C., 5% CO2. The digested tissue was filtered through a membrane (mesh size 70 micron; Sigma Aldrich). Subsequently, the cells were washed 3 times and resuspended in complete medium (RPMI supplemented with 5% FBS and 5% human serum-AB+) at a concentration of 1×10^6 cells/ml. All cell washes in this assay were performed using Rosewall Park Memorial Institute (RPMI)-1640 medium (JRH; Australia). For the experiment, 100 μl of cell suspension was added to the wells of a 96-well culture plate. Following cell plating, 100 μl of the culture medium and 1 μl of various concentrations (0.01, 0.03, 0.1, 0.3, 1, 3, 10, 30 and 100 μM) of the compounds of present invention dissolved in DMSO were added to the cells. The final concentration of DMSO was adjusted to 0.5%. For experimental purposes, 1 μl of […] concentrated solution of the compounds of present invention were dissolved in 200 μl cell suspension to achieve a final concentration of 0.01, 0.03, 0.1, 0.3, 1, 3, 10, 30 and 100 μM. The vehicle (0.5% DMSO) was used as control. 10 μM dexamethasone (Sigma Aldrich) or 1 μM 7-hydroxyfluorinide (7HF) were used as standards for the experiments. The plates were incubated for 16 hours at 37° C., 5% CO2. Subsequently, the supernatants were harvested and stored at −70° C. The amounts of TNF-α, IL-6 and interleukin-8 (IL-8) in the supernatants were assayed using OptiEIA ELISA sets, (BD BioSciences Pharmingen). The protocol followed was as per manufacturers instructions. […] The cytotoxicity of test compounds in synovial cells was assessed by MTS assay. Absorbance was measured at 490 nm. Percent cytotoxicity was calculated by the equation: % Cytotoxicity=(A−B)/A×100 where, A is the absorbance of cells treated with DMSO alone and B is the absorbance of cells treated with the test article.

TNF-α [4] = assay: Synovial tissue assay, TNF-α; assay type: cell-based; conditions: Homo sapiens; synovial tissue cells from rheumatoid arthritis patients, 16 hours
Protocol: as §1, §2, §3

IL-8 = assay: Synovial tissue assay, IL-8; assay type: cell-based; conditions: Homo sapiens; synovial tissue cells from rheumatoid arthritis patients, 16 hours
Protocol: as §1, §2, §3

A2780 = assay: Cytotoxicity assay (propidium iodide), A2780; assay type: cell-based; conditions: Homo sapiens; A2780 (C3a, ovarian); 48 hours
Protocol: as §4

OVCAR 3 = assay: Cytotoxicity assay (propidium iodide), OVCAR 3; assay type: cell-based; conditions: Homo sapiens; OVCAR 3 (C3c, ovarian); 48 hours
Protocol: as §4

HCT116 = assay: Cytotoxicity assay (propidium iodide), HCT116; assay type: cell-based; conditions: Homo sapiens, HCT-116; HCT116 (C4b, colon); 48 hours
Protocol: as §4

STAT3 = STAT3 bioassay (Hela Stat3-luc, luciferase); assay type: cell-based; conditions: Homo sapiens, Oncostatin M induction
Protocol: Cells were seeded (Hela Stat3-luc, ATCC P/N 30-2002) in a white 96 well plate (Nunc cat.no.136101) at a density of 20,000cells/well in 179 μl volume per well (DMEM from Sigma containing 10% FCS). The plate was incubated for 24 hours at 37° C./5% CO2. The cells (wells in triplicates) were then treated with 1 μl/well of 200× stock of the desired compound concentration prepared in 100% DMSO. Curcumin was used as a standard or positive control, added 10 μg/ml in triplicate. DMSO was used as medium control (1 μl/well added in triplicates). The plate was incubated at 37° C./5% CO2 for 1 hour. 20 μl/well Oncostatin M (Oncostatin M, Human, Recombinant, E. coli, Cat.No. 496260, 10 μg from Calbiochem) was added to treated wells, induction control (in triplicate) (1000 ng/ml stock prepared in serum free medium to get final concentration 100 ng/ml). The plate was then incubated for 7-8 hours at 37° C./5% CO2 for induction. A typical assay would consist of triplicate of medium control, triplicate of induction control, triplicate of positive/standard control and test compounds at desired concentration in triplicates. For termination Luciferase assay protocol was followed where the culture medium was removed from all the wells.
200 μl well of PBS was added to remove traces of medium and compound. The PBS was discarded. 40 μl/well of 1× lysis buffer was added to all the wells. The plate was incubated at RT for 20 minutes with intermittent shaking. 100 μl/well of LAB reagent was added to all the wells in dark. {LAB reagent for 1 plate=8 ml Luciferase assay buffer (LAB)+1 ml Coenzyme A (Sigma cat no. C3019) (2.1 mg/ml stock in LAB)+530 μL of ATP (Sigma cat.no.A2383) (5.85 mg/ml stock in LAB)+1 ml luciferin reagent (Promega cat no.245355) (2 mg/ml stock in LAB, protect from light)}.
The luminescence was immediately read on polar star. The values were expressed as percentage inhibition, in terms of treated values to that STAT3 (induction control). IC50 values were calculated from graphs using these percentages.

PI3Kα kinase = molecular target: T1, PI3Kα kinase (Homo sapiens, UniProt P42336); assay: Kinase assay (PI3Kα); assay type: biochemical; conditions: read-out: IC50 (μM) for PI3K inhibition
T1 construct: purchased Millipore, USA
Protocol: The kinase reaction was carried out in a 25 μL volume in a 1.5 mL microcentrifuge tube. The reaction mixture consisted of kinase buffer (10 mM Hepes, pH 7.5, 50 mM MgCl2), 20 ng PI3Kα kinase (Millipore, USA), 12.5 μg phosphotidylinositol (PI), 10 μM ATP and 1 μCi ^32γ P […]. […] The reactions were incubated at 30° C. for 20 minutes and were terminated by adding 1:1 mixture of MeOH and CHCl3. The tube contents were mixed on a vortex mixer and centrifuged at 10000 rpm for 2 minutes. 10 μL of the organic (lower) phase was spotted on to a TLC plate (silica, mobile phase: n-propanol and 2 M glacial acetic acid in 65:35 ratio). The plates were dried and exposed to an X-ray film. The bands appearing as a result of ^32γ P incorporation in PI were quantitated using the Quantityl)ne (BioRad, USA) densitometry program. PI-103 (Calbiochem, USA) was used as a standard.

PANC 1 = assay: Cytotoxicity assay (propidium iodide), PANC 1; assay type: cell-based; conditions: Homo sapiens; PANC 1 (C5a, pancreatic); 48 hours
Protocol: as §4

CAPAN1 = assay: Cytotoxicity assay (propidium iodide), CAPAN1; assay type: cell-based; conditions: Homo sapiens, CAPAN-1; CAPAN1 (C5b, pancreatic); 48 hours
Protocol: as §4

T1 sequence (P42336 whole entry): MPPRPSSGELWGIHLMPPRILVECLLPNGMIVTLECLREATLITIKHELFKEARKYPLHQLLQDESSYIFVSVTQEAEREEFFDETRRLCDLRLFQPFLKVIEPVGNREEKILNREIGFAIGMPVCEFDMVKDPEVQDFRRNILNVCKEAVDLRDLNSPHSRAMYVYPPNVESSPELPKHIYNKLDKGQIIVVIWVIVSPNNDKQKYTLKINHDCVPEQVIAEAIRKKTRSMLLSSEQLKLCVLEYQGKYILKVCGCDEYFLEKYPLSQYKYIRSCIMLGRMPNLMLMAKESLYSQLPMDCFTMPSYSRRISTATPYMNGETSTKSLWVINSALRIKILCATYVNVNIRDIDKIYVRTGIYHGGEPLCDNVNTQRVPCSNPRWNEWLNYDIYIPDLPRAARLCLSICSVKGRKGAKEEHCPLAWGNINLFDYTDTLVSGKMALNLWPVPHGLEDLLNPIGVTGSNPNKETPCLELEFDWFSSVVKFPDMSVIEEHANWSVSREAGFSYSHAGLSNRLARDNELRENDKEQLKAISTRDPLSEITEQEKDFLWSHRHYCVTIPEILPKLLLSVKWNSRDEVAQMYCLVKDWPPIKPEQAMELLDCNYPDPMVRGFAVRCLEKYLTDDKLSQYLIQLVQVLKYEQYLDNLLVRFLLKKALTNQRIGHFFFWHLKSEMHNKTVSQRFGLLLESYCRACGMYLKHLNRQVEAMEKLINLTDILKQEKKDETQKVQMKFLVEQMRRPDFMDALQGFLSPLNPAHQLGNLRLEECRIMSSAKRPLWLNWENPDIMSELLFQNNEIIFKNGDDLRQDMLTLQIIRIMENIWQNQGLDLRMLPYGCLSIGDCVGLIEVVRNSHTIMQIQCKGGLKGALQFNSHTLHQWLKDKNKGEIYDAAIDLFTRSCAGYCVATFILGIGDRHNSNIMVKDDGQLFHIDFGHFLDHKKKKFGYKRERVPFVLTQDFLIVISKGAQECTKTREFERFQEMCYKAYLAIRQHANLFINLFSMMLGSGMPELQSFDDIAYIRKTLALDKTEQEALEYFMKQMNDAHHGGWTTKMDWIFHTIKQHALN
T1 sequence (P27986 whole entry partner): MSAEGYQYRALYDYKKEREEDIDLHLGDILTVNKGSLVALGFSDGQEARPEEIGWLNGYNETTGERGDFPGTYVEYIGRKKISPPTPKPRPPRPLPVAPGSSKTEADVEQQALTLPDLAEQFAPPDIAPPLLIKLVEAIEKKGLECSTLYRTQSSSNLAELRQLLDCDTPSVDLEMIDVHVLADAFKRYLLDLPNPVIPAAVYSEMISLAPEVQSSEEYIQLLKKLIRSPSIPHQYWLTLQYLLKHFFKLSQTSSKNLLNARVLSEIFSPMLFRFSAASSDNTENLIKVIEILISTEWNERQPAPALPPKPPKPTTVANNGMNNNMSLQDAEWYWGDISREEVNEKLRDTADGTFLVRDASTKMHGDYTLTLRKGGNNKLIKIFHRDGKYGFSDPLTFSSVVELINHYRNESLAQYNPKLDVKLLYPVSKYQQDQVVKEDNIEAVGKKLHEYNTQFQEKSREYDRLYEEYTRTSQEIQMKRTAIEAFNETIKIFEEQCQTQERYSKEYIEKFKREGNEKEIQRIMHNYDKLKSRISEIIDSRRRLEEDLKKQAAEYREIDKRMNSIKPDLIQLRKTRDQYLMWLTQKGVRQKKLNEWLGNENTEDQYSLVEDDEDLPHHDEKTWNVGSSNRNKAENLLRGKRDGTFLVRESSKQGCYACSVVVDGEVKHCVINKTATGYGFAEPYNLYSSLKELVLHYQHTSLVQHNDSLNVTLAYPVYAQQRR

Row | Compound | IC50 (IL-6 [1]) [µM] | IC50 (TNF-α [2]) [µM] | IC50 (IL-6 [3]) [µM] | IC50 (TNF-α [4]) [µM] | IC50 (IL-8) [µM] | IC50 (STAT3) [µM] | IC50 (PI3Kα kinase) [µM] | IC50 (A549) [µM] | IC50 (H460) [µM] | IC50 (MDA MB 468) [µM] | IC50 (MCF7) [µM] | IC50 (G361) [µM] | IC50 (PC3) [µM] | IC50 (A2780) [µM] | IC50 (OVCAR 3) [µM] | IC50 (HCT116) [µM] | IC50 (PANC 1) [µM] | IC50 (CAPAN1) [µM]
1 | CN(N=Cc1cnc2ccc(-c3cccnc3)cn12)S(=O)(=O)c1cccc2cccnc12 [Example 30, N-methyl-N′-((6-(pyridine-3-yl)imidazo[1,2-a]pyridine-3-yl)methylene) quinoline-8-sulfonohydrazide] | ≥ 5 |  |  |  |  |  |  | > 5 | > 5 | > 5 | > 5 | > 5 | > 5 |  |  |  |  | 
2 | CN(N=Cc1cnc2ccc(-c3cccnc3)cn12)S(=O)(=O)c1ccc(F)cc1F [Example 13, 2,4-Difluoro-N-methyl-N′-((6-(pyridine-3-yl)imidazo[1,2-a]pyridine-3-yl)methylene) benzenesulfonohydrazide] | 0.001 to 5 | 0.001 to 1 | 0.01 to 0.3 | 0.01 to 0.3 | 0.3 to 3 | 5 to 10 |  |  |  |  |  |  |  |  |  |  |  | 
3 | CN(N=Cc1cnc2ccc(-c3cccnc3)cn12)S(=O)(=O)c1ccccc1F [Example 4, 2-Fluoro-N-methyl-N′-((6-(pyridine-3-yl)imidazo[1,2-a]pyridine-3-yl)methylene)benzenesulfonohydrazide] | 0.001 to 5 | 0.001 to 1 | 0.01 to 0.3 | 0.01 to 0.3 | 0.3 to 3 | 0.1 to 5 |  |  |  |  |  |  |  |  |  |  |  | 
4 | CN(N=Cc1cnc2ccc(-c3cccnc3)cn12)S(=O)(=O)c1ccccc1 [Example 1, N-methyl-N′-((6-(pyridin-3-yl)imidazo[1,2-a]pyridin-3-yl)methylene)benzenesulfonohydrazide] | 0.001 to 5 | 0.001 to 1 |  |  |  | 5 to 10 |  | 0.01 to 5 | 0.01 to 5 |  |  |  | 0.01 to 5 | 0.01 to 5 | 0.01 to 5 | 0.01 to 5 | 0.01 to 5 | 0.01 to 5

Further lines, with some results ahead:

Row | IC50 (IL-6 [1]) [µM] | IC50 (TNF-α [2]) [µM] | IC50 (IL-6 [3]) [µM] | IC50 (TNF-α [4]) [µM] | IC50 (IL-8) [µM] | IC50 (STAT3) [µM] | IC50 (PI3Kα kinase) [µM] | Compound | IC50 (A549) [µM] | IC50 (H460) [µM] | IC50 (MDA MB 468) [µM] | IC50 (MCF7) [µM] | IC50 (G361) [µM] | IC50 (PC3) [µM] | IC50 (A2780) [µM] | IC50 (OVCAR 3) [µM] | IC50 (HCT116) [µM] | IC50 (PANC 1) [µM] | IC50 (CAPAN1) [µM]
5 | 0.001 to 5 | 0.001 to 1 | 0.3 to 3 | 0.3 to 3 | 0.3 to 3 |  |  | Cc1ccc(F)c(S(=O)(=O)N(C)N=Cc2cnc3ccc(-c4cccnc4)cn23)c1 [Example 19, 2-Fluoro-N, 5-dimethyl-N′-((6-(pyridine-3-yl)imidazo[1,2-a]pyridine-3-yl)methylene) benzenesulfonohydrazide] |  |  |  |  |  |  |  |  |  |  | 
6 | 0.001 to 5 | 0.001 to 1 |  |  |  | 0.1 to 5 |  | CN(/N=C/c1cnc2ccc(-c3cccnc3)cn12)S(=O)(=O)c1cccc(C#N)c1 [Example 10, (E)-3-cyano-N-methyl-N′-((6-(pyridin-3-yl)imidazo[1,2-a]pyridin-3-yl)methylene)benzenesulfonohydrazide] | 0.01 to 5 | 0.01 to 5 |  |  |  | 0.01 to 5 | 0.01 to 5 | 0.01 to 5 | 0.01 to 5 |  | 
7 | 0.001 to 5 | 0.001 to 1 | 0.01 to 0.3 | 0.01 to 0.3 | 0.3 to 3 | 5 to 10 | 0.01 to 0.5 | CN(N=Cc1cnc2ccc(-c3cccnc3)cn12)S(=O)(=O)c1c(F)cccc1F [Example 14, 2,6-Difluoro-N-methyl-N′-((6-(pyridine-3-yl)imidazo[1,2-a]pyridine-3-yl)methylene) benzenesulfonohydrazide] |  |  |  |  |  |  |  |  |  |  | 
8 | 0.001 to 5 |  |  |  |  |  |  | Cc1ccc([N+](=O)[O-])cc1S(=O)(=O)N(C)N=Cc1cnc2ccc(-c3cnc4ccccc4c3)cn12 [Example 99, N, 2-Dimethyl-5-nitro-N′-((6-(quinolin-3-yl)imidazo[1,2-a]pyridine-3-yl)methylene)benzenesulfonohydrazide] | 0.01 to 5 | 0.01 to 5 |  |  |  | 0.01 to 5 | 0.01 to 5 | 0.01 to 5 | 0.01 to 5 |  | 

Source: patent publication US8741932B2, “Imidazopyridine derivatives” (Piramal Enterprises Limited, priority 2009, dated 2014)
